Data on 2 molecules can be found in ChEMBL document CHEMBL1255360, “Daptomycin exerts bactericidal activity without lysis of Staphylococcus aureus” (2008).

Converted amounts (≈) assume the structure as drawn. The source made the active and inactive calls. No cut-off for these calls is given here. Some results are limits rather than exact numbers.

In assay [1] the test system is Staphylococcus aureus. Kind of assay: Bactericidal activity against Staphylococcus aureus ATCC 29213 assessed as membrane permeability at 4 ug/ml by ToPro3 dye based assay. In kind it is functional, organism-based.
For assay [2], the system named is Staphylococcus aureus. Kind of assay: Bactericidal activity against Staphylococcus aureus ATCC 29213 assessed as cell lysis at 4 ug/ml after 120 mins. The format is functional, organism-based.
Assay [3] deals with Staphylococcus aureus. In words: Bactericidal activity against Staphylococcus aureus ATCC 29213 assessed as calcein release at 4 ug/ml. In kind it is functional, organism-based.
Assay [4] relates to Staphylococcus aureus. In words: Bactericidal activity against Staphylococcus aureus ATCC 29213 assessed as decrease in cell viability at MIC after 120 mins. In kind it is functional.
In assay [5] the test system is Staphylococcus aureus. Kind of assay: Bactericidal activity against Staphylococcus aureus ATCC 29213 assessed as cell lysis at 4 ug/ml after 60 mins by transmission electron microscopy. In kind it is functional, organism-based.
For assay [6], the system named is Staphylococcus aureus. Kind of assay: microbe, parasite or virus in culture. The conditions noted are these: ATCC 29213.
Description: Antimicrobial activity against Staphylococcus aureus ATCC 29213
In assay [7] the test system is Staphylococcus aureus. In words: Bactericidal activity against Staphylococcus aureus ATCC 29213 assessed as altered cell morphology at 4 ug/ml after 60 mins by transmission electron microscopy. In kind it is functional.
Assay [8] has as its system Staphylococcus aureus. In words: Bactericidal activity against Staphylococcus aureus ATCC 29213 assessed as decrease in cell viability at 4 ug/ml within 120 mins. The format is functional.
For assay [9], the system named is Staphylococcus aureus. Kind of assay: Bactericidal activity against Staphylococcus aureus ATCC 29213 assessed as cell lysis at MIC after 120 mins. In kind it is functional.

Consider `O=C(O)c1cn(C2CC2)c2cc(N3CCNCC3)c(F)cc2c1=O`, for which the outcome in the assay on Staphylococcus aureus [1] was inactive.

For the molecule `CCCCCCCCCC(=O)N[C@@H](Cc1c[nH]c2ccccc12)C(=O)N[C@H](CC(N)=O)C(=O)N[C@@H](CC(=O)O)C(=O)N[C@@H]1C(=O)NCC(=O)N[C@@H](CCCN)C(=O)N[C@@H](CC(=O)O)C(=O)N[C@H](C)C(=O)N[C@@H](CC(=O)O)C(=O)NCC(=O)N[C@H](CO)C(=O)N[C@@H]([C@H](C)CC(=O)O)C(=O)N[C@@H](CC(=O)c2ccccc2N)C(=O)O[C@@H]1C`, the result in the assay with Staphylococcus aureus [2], with Staphylococcus aureus [3], in the assay with Staphylococcus aureus [5] and in the assay with Staphylococcus aureus [1] was inactive. Besides, the figures for the “fold change (FC)” value in the assay on Staphylococcus aureus [4] and in the assay with Staphylococcus aureus [8] were 200 and over 1000, respectively. For the same molecule, the MIC in the assay with Staphylococcus aureus [6] stood at 0.5 µg/mL (≈ 0.309 µM). Moreover, the values for the Activity in the assay with Staphylococcus aureus [7] and in the assay with Staphylococcus aureus [9] were over 90% and 50%, respectively.
